Measured values reported in US20250276982A1, “KRAS INHIBITORS” (ASCENTAGE PHARMA (SUZHOU) CO., LTD., priority 2021, published 2025).

Experiments:
[1] = system: p-ERK in AGS cells; test: p-ERK assay in AGS cells (fixed cells, anti-p-ERK / β-Actin antibodies, IR imaging); format: cell-based; conditions: Homo sapiens, 3 h at 37° C., p-ERK detected by antibody with β-Actin, IR fluorescence
Protocol: The expression of p-ERK was detected in this assay. At first, the AGS cells (40000 cells/well) were seeded in 96-well plate culture overnight and treated with KRAS-G12D compounds inhibitors at concentrations of 1, 0.33, 0.11, 0.03, 0.01, 0.004, 0.001, 0.0004, 0.0001 μM for 3 h at 37° C. Then, add an equal volume (100 μL) of 8% paraformaldehyde solution to fix and crosslink the cells to the microplate for 15 minutes. Add 100 μL of 1× permeabilization solution to wells for 30 min and add 100 μL of 1× blocking solution for 2 h. Wash with PBS 3 times after each reaction. At last, Incubation with primary antibody (Anti-mouse β-Actin and Anti-rabbit p-ERK) and secondary antibody (Goat anti-Mouse IgG H&L IRDye 800CW and Goat anti-Rabbit IgG H&L IRDye 680RW) for 2 h, As appropriate, image the microplate with an IR scanner or develop the HRP labeled microplate and read it with a spectrophotometer. The fluorescence signal was monitored using a microplate reader (Azure biosystems, Sapphire biomolecular imager) using excitation and emission wavelengths of 680 and 800 nm, respectively. Export data. The inhibitor dose-reponse curves were analyzed using normalized IC50 regression curve fitting with control based normalization.

[2] = system: GP2d cells; test: Cellular proliferation assay in GP2d cells (CellTiterGlo luminescent cell viability assay); format: cell-based; conditions: 72 hours treatment, CellTiter-Glo
Protocol: Example 32: Cellular Proliferation Assay in GP2d Cells
The inhibitory effect of test compounds on cellular proliferation was determined using CellTiterGlo® luminescent cell viability assay (Promega) following manufacturer's instruction.
GP2d cells (ECACC #95090715) were cultured in DMEM medium supplemented with 10% fetal bovine serum, 10 U/ml penicillin and 10 ug/ml streptomycin. Cells were plated in 96-well plates at a density of 2000 cells/well and allowed attach for […]. Then the cells were treated with various concentrations of test compounds for 72 hours. CellTiter-Glo® Reagent was added to wells and incubated for 10 minutes at room temperature. The plates were read on GloMax® 96 Microplate Luminometer or compatible microplate readers. The percentage of cellular viability was calculated as: […]

## Oc1cc(-c2c(F)cc3c(N4C[C@H]5CC[C@@H](C4)N5)nc(OCC4(CN5C6CCC5COC6)CC4)nc3c2F)c2c3c(ccc2c1)CCC3 [Example 28, 9-(2-((1-((3-oxa-8-azabicyclo[3.2.1]octan-8-yl)methyl)cyclopropyl)methoxy)-4-((1R,5S)-3,8-diazabicyclo[3.2.1]octan-3-yl)-6,8-difluoroquinazolin-7-yl)-2,3-dihydro-1H-cyclopenta[a]naphthalen-7-ol]
[1]
  IC50: 87 nM
[2]
  IC50: 253 nM

## CC1(O)CCCN(c2nc(OCC34CCCN3C[C@H](F)C4)nc3c(F)c(-c4cc(O)cc5ccc6c(c45)CCC6)ncc23)C1 (stereo partly drawn) [Example 13, 1-(8-fluoro-2-(((2R)-2-fluorotetrahydro-1H-pyrrolizin-7a(5H)-yl)methoxy)-7-(7-hydroxy-2,3-dihydro-1H-cyclopenta[a]naphthalen-9-yl)pyrido[4,3-d]pyrimidin-4-yl)-3-methylpiperidin-3-ol]
[1]
  IC50: 22 nM
[2]
  IC50: 10 nM

## Fc1c(-c2cccc3ccc4c(c23)CCO4)ncc2c(N3C[C@H]4CC[C@@H](C3)N4)nc(OC[C@@]34CCCN3C[C@H](F)C4)nc12 [Example 3, 4-((1R,5S)-3,8-diazabicyclo[3.2.1]octan-3-yl)-7-(1,2-dihydronaphtho[2,1-b]furan-9-yl)-8-fluoro-2-(((2R,7aS)-2-fluorotetrahydro-1H-pyrrolizin-7a(5H)-yl)methoxy)pyrido[4,3-d]pyrimidine]
[1]
  IC50: 8800 nM
[2]
  IC50: 8800 nM

## Oc1cc(-c2ncc3c(N4C[C@H]5CC[C@@H](C4)N5)nc(OC[C@@]45CCCN4C[C@H](F)C5)nc3c2F)c2c(ccc3occc32)c1 [Example 5, 9-(4-((1R,5S)-3,8-diazabicyclo[3.2.1]octan-3-yl)-8-fluoro-2-(((2R,7aS)-2-fluorotetrahydro-1H-pyrrolizin-7a(5H)-yl)methoxy)pyrido[4,3-d]pyrimidin-7-yl)naphtho[2,1-b]furan-7-ol]
[1]
  IC50: 37 nM
[2]
  IC50: 2860 nM

## Oc1cc(-c2ncc3c(N4C[C@H]5CC[C@@H](C4)N5)nc(OCC4(CN5C6CCC5COC6)CC4)nc3c2F)c2c3c(ccc2c1)CCC3 [Example 23, 9-(2-((1-((3-oxa-8-azabicyclo[3.2.1]octan-8-yl)methyl)cyclopropyl)methoxy)-4-((1R,5S)-3,8-diazabicyclo[3.2.1]octan-3-yl)-8-fluoropyrido[4,3-d]pyrimidin-7-yl)-2,3-dihydro-1H-cyclopenta[a]naphthalen-7-ol]
[1]
  IC50: 33 nM
[2]
  IC50: 908 nM

## Oc1cc(-c2c(F)cc3c(N4C[C@H]5CC[C@@H](C4)N5)nc(OCC4(CN5CCOCC5)CC4)nc3c2F)c2c3c(ccc2c1)CCC3 [Example 29, 9-(4-((1R,5S)-3,8-diazabicyclo[3.2.1]octan-3-yl)-6,8-difluoro-2-((1-(morpholinomethyl)cyclopropyl)methoxy)quinazolin-7-yl)-2,3-dihydro-1H-cyclopenta[a]naphthalen-7-ol]
[1]
  IC50: 44 nM
[2]
  IC50: 273 nM

## Fc1c(-c2cccc3ccc4occc4c23)ncc2c(N3C[C@H]4CC[C@@H](C3)N4)nc(OC[C@@]34CCCN3C[C@H](F)C4)nc12 [Example 4, 4-((1R,5S)-3,8-diazabicyclo[3.2.1]octan-3-yl)-8-fluoro-2-(((2R,7aS)-2-fluorotetrahydro-1H-pyrrolizin-7a(5H)-yl)methoxy)-7-(naphtho[2,1-b]furan-9-yl)pyrido[4,3-d]pyrimidine]
[1]
  IC50: 4900 nM
[2]
  IC50: 4750 nM

## Oc1cc(-c2ncc3c(N4C[C@H]5CC[C@@H](C4)N5)nc(OC[C@@]45CCCN4C[C@H](F)C5)nc3c2F)c2c3c(ccc2c1)COC3 [Example 21, 9-(4-((1R,5S)-3,8-diazabicyclo[3.2.1]octan-3-yl)-8-fluoro-2-(((2R,7aS)-2-fluorotetrahydro-1H-pyrrolizin-7a(5H)-yl)methoxy)pyrido[4,3-d]pyrimidin-7-yl)-1,3-dihydronaphtho[1,2-c]furan-7-ol]
[1]
  IC50: 52 nM
[2]
  IC50: 263 nM

## OCC1Cc2ccc3cc(O)cc(-c4ncc5c(N6C[C@H]7CC[C@@H](C6)N7)nc(OC[C@@]67CCCN6C[C@H](F)C7)nc5c4F)c3c2C1 (stereo partly drawn) [Example 18, 9-(4-((1R,5S)-3,8-diazabicyclo[3.2.1]octan-3-yl)-8-fluoro-2-(((2R,7aS)-2-fluorotetrahydro-1H-pyrrolizin-7a(5H)-yl)methoxy)pyrido[4,3-d]pyrimidin-7-yl)-2-(hydroxymethyl)-2,3-dihydro-1H-cyclopenta[a]naphthalen-7-ol]
[1]
  IC50: 240 nM
[2]
  IC50: 17000 nM

## CN(C)CC1(COc2nc(N3C[C@H]4CC[C@@H](C3)N4)c3cnc(-c4cc(O)cc5ccc6c(c45)CCC6)c(F)c3n2)CC1 [Example 8, 9-(4-((1R,5S)-3,8-diazabicyclo[3.2.1]octan-3-yl)-2-((1-((dimethylamino)methyl)cyclopropyl)methoxy)-8-fluoropyrido[4,3-d]pyrimidin-7-yl)-2,3-dihydro-1H-cyclopenta[a]naphthalen-7-ol]
[1]
  IC50: 41 nM
[2]
  IC50: 284 nM

## Oc1cc(-c2cc3nc(OC[C@@]45CCCN4C[C@H](F)C5)nc(N4C[C@H]5CC[C@@H](C4)N5)c3cn2)c2c3c(ccc2c1)CCC3 [Example 30, 9-(4-((1R,5S)-3,8-diazabicyclo[3.2.1]octan-3-yl)-2-(((2R,7aS)-2-fluorotetrahydro-1H-pyrrolizin-7a(5H)-yl)methoxy)pyrido[4,3-d]pyrimidin-7-yl)-2,3-dihydro-1H-cyclopenta[a]naphthalen-7-ol]
[2]
  IC50: 409 nM

## Oc1cc(-c2c(Cl)cc3c(N4C[C@H]5CC[C@@H](C4)N5)nc(OC[C@@]45CCCN4C[C@H](F)C5)nc3c2F)c2c3c(ccc2c1)CCC3 [Example 31, 9-(4-((1R,5S)-3,8-diazabicyclo[3.2.1]octan-3-yl)-6-chloro-8-fluoro-2-(((2R,7aS)-2-fluorotetrahydro-1H-pyrrolizin-7a(5H)-yl)methoxy)quinazolin-7-yl)-2,3-dihydro-1H-cyclopenta[a]naphthalen-7-ol]
[2]
  IC50: 737 nM

## Oc1cc(-c2ccc3c(N4C[C@H]5CC[C@@H](C4)N5)nc(OCC4(CN5CC6COCC6C5)CC4)nc3c2F)c2c3c(ccc2c1)CCC3 (stereo partly drawn) [Example 24, 9-(4-((1R,5S)-3,8-diazabicyclo[3.2.1]octan-3-yl)-8-fluoro-2-((1-((tetrahydro-1H-furo[3,4-c]pyrrol-5 (3H)-yl)methyl)cyclopropyl)methoxy)quinazolin-7-yl)-2,3-dihydro-1H-cyclopenta[a]naphthalen-7-ol]
[1]
  IC50: 24 nM
[2]
  IC50: 120 nM

## Oc1cc(-c2ncc3c(N4C[C@H]5CC[C@@H](C4)N5)nc(OC[C@@]45CCCN4C[C@H](F)C5)nc3c2F)c2c3c(ccc2c1)CCCC3 [Example 16, 4-(4-((1R,5S)-3,8-diazabicyclo[3.2.1]octan-3-yl)-8-fluoro-2-(((2R,7aS)-2-fluorotetrahydro-1H-pyrrolizin-7a(5H)-yl)methoxy)pyrido[4,3-d]pyrimidin-7-yl)-5,6,7,8-tetrahydrophenanthren-2-ol]
[1]
  IC50: 5 nM
[2]
  IC50: 849 nM

## Oc1cc(-c2ncc3c(N4CC5CCC4CN5)nc(OC[C@@]45CCCN4C[C@H](F)C5)nc3c2F)c2c3c(ccc2c1)CCC3 (stereo partly drawn) [Example 7, 9-(4-(2,5-diazabicyclo[2.2.2]octan-2-yl)-8-fluoro-2-(((2R,7aS)-2-fluorotetrahydro-1H-pyrrolizin-7a(5H)-yl)methoxy)pyrido[4,3-d]pyrimidin-7-yl)-2,3-dihydro-1H-cyclopenta[a]naphthalen-7-ol]
[1]
  IC50: 149 nM
[2]
  IC50: 920 nM

## C[C@@H]1COCCN1CC1(COc2nc(N3C[C@H]4CC[C@@H](C3)N4)c3ccc(-c4cc(O)cc5ccc6c(c45)CCC6)c(F)c3n2)CC1 [Example 25, 9-(4-((1R,5S)-3,8-diazabicyclo[3.2.1]octan-3-yl)-8-fluoro-2-((1-(((R)-3-methylmorpholino)methyl)cyclopropyl)methoxy)quinazolin-7-yl)-2,3-dihydro-1H-cyclopenta[a]naphthalen-7-ol]
[1]
  IC50: 18 nM
[2]
  IC50: 303 nM

## Oc1cc(-c2ncc3c(N4C[C@H]5CC[C@@H](C4)N5)nc(OC[C@@]45CCCN4C[C@H](F)C5)nc3c2F)c2c(c1)cc1n2CCC1 [Example 19, 5-(4-((1R,5S)-3,8-diazabicyclo[3.2.1]octan-3-yl)-8-fluoro-2-(((2R,7aS)-2-fluorotetrahydro-1H-pyrrolizin-7a(5H)-yl)methoxy)pyrido[4,3-d]pyrimidin-7-yl)-2,3-dihydro-1H-pyrrolo[1,2-a]indol-7-ol]
[2]
  IC50: 3060 nM

## Oc1cc(-c2ncc3c(N4C[C@H]5CC[C@@H](C4)N5)nc(OC[C@@]45CCCN4C[C@H](F)C5)nc3c2F)c2c(ccn3cccc23)c1 [Example 22, 10-(4-((1R,5S)-3,8-diazabicyclo[3.2.1]octan-3-yl)-8-fluoro-2-(((2R,7aS)-2-fluorotetrahydro-1H-pyrrolizin-7a(5H)-yl)methoxy)pyrido[4,3-d]pyrimidin-7-yl)pyrrolo[2,1-a]isoquinolin-8-ol]
[2]
  IC50: 3340 nM
